“Also recorded” adds a separate entry of the source.

The subject of test [1] is SHP2. The conditions noted are these: SHP2 substrate sites, cutoff > 0.5 for genuine substrates; ref [1] Barr AJ et al., Cell 136, 352-63 (2009); cited from earlier work. From the text:
page 80: Supplementary tables Peptide name Sequence Activity (Arb. u.) CADH2-Y785 […] 0.7 ERBB2-Y1248 […]- 0.6 PGFRB-Y751 […] 1 LCK-Y394 […] 1.3 CSK-Y184 […] 1.5 GHR-Y487 […] 0.8 TIE2-Y816 […] 1.2 ERBB2-Y1139 […] 1.2 WASP-Y290 […] 0.6 PAXI-Y118 […] 0.8 Supplementary table 1. SHP2 substrate sites derived from a large-scale comparative study with quantitative results. A cutoff of > 0.5 was applied to separate genuine SHP2 substrates from spurious signals. ...

The subject of test [2] is tyrosine kinase domain of the human insulin receptor (InsR). The test can be described thus: Capillary electrophoresis phosphorylation assay, InsR kinase domain. The class given is biochemical. The following applies: CE assay, effect of pSer vs non-phosphorylated peptide of the pair; 1 mM ATP, pH 7.5; n = 1. The protocol: Ni-NTA purified stocks were subjected to anion exchange chromatography using an Äkta explorer instrument (Amersham Pharmacia) and Resource Q columns (GE healthcare). Prior to anion exchange, all proteins were dialyzed overnight against a low salt buffer (10–50 mM NaCl, 20 mM TRIS [pH = 8.0], 10% glycerol and 1 mM 1,4-dithiothreitol [DTT]) using a Servapor MWCO 12,000–14,000 membrane. Proteins loaded onto the column were eluted using a salt gradient up to 1 M NaCl over 30 min. Purity of proteins was assessed by SDS-PAGE and final samples were typically found to have >95% purity (see Supplementary figs. 85, 86). The protein aliquots were snap-frozen in liquid nitrogen and stored in −80 °C. […]
Phosphorylation and dephosphorylation assays with peptides were performed using capillary electrophoresis on an Agilent Capillary Electrophoresis ^3DCE system (Agilent Technologies, Waldbronn, Germany) applying DB-WAX coated silica capillary having a 33.5 cm total and 25 cm effective length with 50 μm I.D. (Agilent Technologies, Santa Clara, CA, USA). On-line absorption at 200 nm was monitored by DAD UV-Vis detector. […] Kinetic curves in the article are always presented with exponential fits (that approximate the integrated Michaelis-Menten functions decently on the measured time intervals).

In test [3] the test system is wild-type SHP2 catalytic domain. In words: Capillary electrophoresis dephosphorylation assay, SHP2 catalytic domain. The class given is biochemical, human. The conditions noted are these: for % nominal product: WT-SHP2 catalytic domain. The protocol: Phosphorylation and dephosphorylation assays with peptides were performed using capillary electrophoresis on an Agilent Capillary Electrophoresis ^3DCE system (Agilent Technologies, Waldbronn, Germany) applying DB-WAX coated silica capillary having a 33.5 cm total and 25 cm effective length with 50 μm I.D. (Agilent Technologies, Santa Clara, CA, USA). On-line absorption at 200 nm was monitored by DAD UV-Vis detector. The capillary was thermostated at 25 °C. Before measurements the capillary was rinsed subsequently with distilled water for 15 min and between measurements with BGE (100 mM trimethylamine-phosphate buffer (pH 2.5)) for 3 min. Samples were injected by 5 × 103 Pa pressure for 6 s. Runs were performed in the positive-polarity mode with 20 kV. […] The reaction was initialized by addition of the phosphatase enzyme. Kinase reactions were realized with the following buffer: 20 mM potassium phosphate (monobasic), 15 mM sodium phosphate (dibasic), 100 mM NaCl, 5 mM MgCl2, 5% glycerol, 0,05% non-ionic detergent IGEPAL, pH 7.5; reaction was started with the addition of 1 mM of ATP. Sampling from reactions was done in real time, except when conditions required pre-concentration of samples (with PTP1B only). In the latter case, reactions were run in 15 ml Falcon tubes, using an NH4HCO3-based buffer (100 mM end concentration), with 5 nM enzyme. After heat inactivation (10 min at 75 °C), the latter samples were lyophilized until dry and reconstituted in 40 ul distilled H2O. Kinetic curves in the article are always presented with exponential fits (that approximate the integrated Michaelis-Menten functions decently on the measured time intervals).

In test [4] the test system is HEK293T cells co-transfected with IRS1-FLAG (wild-type or Ser/Ala mutant) and constitutive active SHP2. In words: Cell-based IRS1 Y612 phosphorylation assay (western blot) after insulin. Further details: species or system human. The method, then: HEK293T cells (#CRL-3216 ATCC, Manassas, VA USA) were maintained in DMEM (#41966029 Gibco, Waltham MA USA) supplemented with 10% FBS (#10500064 Gibco), 1% penicillin-streptomycin (#P0781-100ML Sigma, St. Louis MI USA) and 0.1% Amphotericin B (#15290026 Gibco). Cells were plated into 24-well plates in 7.5 × 10^4/well concentration and co-transfected with wild-type or Ser/Ala mutant pcDNA3.1-IRS1-FLAG and constitutive active pcDNA3.1-SHP2 plasmids using Lipofectamine 3000 (#L3000008 Invitrogen) reagent following the manufacturer’s instruction. After overnight serum-starvation cells were treated with 1 µM insulin (I9278, Sigma) for 0–30 min and harvested in Western sample buffer. Samples were run in 4–20% gradient gel (#4561096 BioRad, Hercules, CA USA) and transferred to nitrocellulose membrane using Transblot-Turbo System (#1704271 BioRad). Membranes were incubated in 1:5000 M2 anti-FLAG (#1804-200UG Sigma) and 1:1000 anti-pY612-IRS1 (#44-816 G Invitrogen) overnight and labelled with 1:10000 IRDye anti- mouse 680 (#92668070 LICOR Biosciences, Lincoln, NE USA) and 1:10.000 IRDye anti- rabbit 800 […] (#92632211 LICOR Biosciences) secondary antibodies. Membranes were scanned using the Odyssey CLx Fluorescence Imaging System (LICOR Biosciences, v5.2.5.).
In general terms: Immunoblotting shows a protein as a band on a membrane.

The mark [5] stands for this setting: 19 min, average of 3 replicates.
The mark [6] stands for this setting: 35 min, average of 3 replicates.

As for “KNNPDPTIYPVLDWNDI [TIE2-Y816, SHP2 substrate site peptide from a large-scale comparative study]”, the “Activity (Arb. u.)” value in test [1] was 1.2 Arb. u.
For the substance “HPPEPK{pSer}PGEYVNIEFGS [0pRev-IRS1, IRS1 Y896 motif peptide with −4 pSer only]”, the “tyrosine phosphorylation by InsR kinase (in words)” value in test [2] is reported as “altered kinetics to a very limited degree; also recorded: no major differences”.
For the substance “SSLSNIDFYAQVSDITP [GHR-Y487, SHP2 substrate site peptide from a large-scale comparative study]”, the “Activity (Arb. u.)” value in test [1] is recorded as 0.8 Arb. u.
Take “HPPEPKSPGE{pTyr}VNIEFGS [p0Rev-IRS1, IRS1 Y896 peptide, phosphotyrosine-only, used for dephosphorylation assays]”: the “% nominal product” value is reported as 2.9% in test [3] (setting [5]); 4.9% in test [3] (19 min, replicate 01); 4.1% in test [3] (19 min, replicate 02); -0.2% in test [3] (19 min, replicate 03); 2.1% in test [3] (setting [6]); 2.3% in test [3] (35 min, replicate 01). The “% nominal product” value in test [3] (35 min, replicate 02) was found to be 1.9%; in test [3] (35 min, replicate 03), 2.2%; in test [3] (51 min, replicate 01) it was 8.3%; in test [3] (51 min, replicate 02) it was 2.0%; in test [3] (51 min, replicate 03) it was 1.3%.
In the case of “TVAAQDEFYRSGWALNM [CSK-Y184, SHP2 substrate site peptide from a large-scale comparative study]”, in test [1], the “Activity (Arb. u.)” value is 1.5 Arb. u.
Turning to “DAETSKLIYDFIEDQGG [WASP-Y290, SHP2 substrate site peptide from a large-scale comparative study]”, the “Activity (Arb. u.)” value in test [1] was 0.6 Arb. u.
With “MSKDESVDYVPMLDMKG [PGFRB-Y751, SHP2 substrate site peptide from a large-scale comparative study]”, the “Activity (Arb. u.)” value in test [1] was 1 Arb. u.
With “GGGEEDQDYDLSQLQQP [CADH2-Y785, SHP2 substrate site peptide from a large-scale comparative study]”, the “Activity (Arb. u.)” value in test [1] is on record as 0.7 Arb. u.
Take “ARLIEDNEYTAREGAKF [LCK-Y394, SHP2 substrate site peptide from a large-scale comparative study]”: in test [1], the “Activity (Arb. u.)” value is reported as 1.3 Arb. u.
In the case of wt, the “pY612-IRS1/FLAG ratio, Median value” in test [4] (Supp Fig 13, baseline analysis, median of 12) is 0.0394; in test [4] (Supp Fig 13, time course analysis, 0 min, median of 10), 0.0379; in test [4] (Supp Fig 13, time course analysis, 15 min, median of 10) it was 0.4550; in test [4] (Supp Fig 14, baseline analysis, median of 3), 0.0140.
For “RVGEEEHVYSFPNKQKS [PAXI-Y118, SHP2 substrate site peptide from a large-scale comparative study]”, the “Activity (Arb. u.)” value in test [1] is 0.8 Arb. u.
Regarding “LTCSPQPEYVNQPDVRP [ERBB2-Y1139, SHP2 substrate site peptide from a large-scale comparative study]”, the “Activity (Arb. u.)” value in test [1] was 1.2 Arb. u.
Turning to “GRKGSGDYMPM{pSer}PKS [0pIRS1, IRS1 Y632 peptide with pSer only, InsR kinase substrate]”, in test [2], the “tyrosine phosphorylation by InsR kinase (in words)” value is “failed to indicate any major effect; also recorded: altered kinetics to a very limited degree”.
As for “HPPEPK{pSer}PGE{pTyr}VNIEFGS [ppRev-IRS1, IRS1 Y896 peptide with pSer in addition to pTyr, for dephosphorylation assays]”, the “tyrosine dephosphorylation rate (in words)” value in test [3] (CE assay, substrate 50 μM, enzyme 25 nM, 50 mM TRIS, 150 mM NaCl, 1 mM EDTA, 2 mM DTT, IGEPAL 0.1%, pH 7.4) is listed as “superior reaction rates; also recorded: greatly enhanced”. The “% nominal product” value in test [3] (setting [5]) is given as 47.8%; in test [3] (19 min, replicate 01) it was 47.7%; in test [3] (19 min, replicate 02), 59.3%; in test [3] (19 min, replicate 03), 36.5%; in test [3] (setting [6]), 52.8%; in test [3] (35 min, replicate 01) it was 58.7%. For the same substance, the “% nominal product” value in test [3] (35 min, replicate 02) is 60.4%; in test [3] (35 min, replicate 03) it was 39.2%; in test [3] (51 min, average of 3 replicates) it was 55.2%; in test [3] (51 min, replicate 01) it was 60.3%; in test [3] (51 min, replicate 02), 61.2%; in test [3] (51 min, replicate 03), 44.1%.
As to “TPTAENPEYLGLDVPV- [ERBB2-Y1248, SHP2 substrate site peptide from a large-scale comparative study]”, in test [1], the “Activity (Arb. u.)” value is 0.6 Arb. u.

The record behind these values is paper PMC9481563, “Structural insights into the pSer/pThr dependent regulation of the SHP2 tyrosine phosphatase in insulin and CD28 signaling” (Nature Communications, 2022).
